{
  "source": "patent US20100115832A1",
  "about": "“MOISTURIZING AGENT WITH NUTRIENTS” (priority 2006, published 2010)",
  "settings": "research at the DRiWATER lab",
  "data": [
    {"compound": "CC(=O)O", "note": "[acetic acid]", "values": [
      {"measurement": "effect on gel degradation in soil", "value": "will slow gel degradation in soil"}
    ]}
  ]
}
